Results on one molecule are retold here after patent US9149035B2, “Antimicrobial composition” (CONVATEC TECHNOLOGIES, INC., priority 2005, dated 2015).

Structures are written as SMILES. Read-outs that look alike come from different tables or passages of the source.

Assay [1] has as its system Ps aeruginosa. Briefly: Corrected zone of inhibition of hydrated wound dressings on Poloxamer gel with MHB (biofilm bacteria). Particulars: bacteria grown in the biofilm state (poloxamer gel). Type of assay: cell-based. The source says: The antimicrobial dressings used in this study were ActicoatTM (Smith and Nephew) and AQUACEL® Ag Hydrofiber® (ConvaTec). Acticoat is a nanocrystalline silver antimicrobial barrier dressing which consists of a rayon/polyester non-woven inner core laminated between two layers of silver-coated high density polyethylene mesh (HDPE). The layers are held together with ultrasound […] comprised of sodium carboxymethylcellulose Hydrofiber® and ionic silver. The silver cations in AQUACEL® Ag are associated with the individual highly absorbent anionic carboxymethylcellulose fibres of the Hydrofiber® dressing. AQUACEL® Hydrofiber® dressing (without silver) was also used as a control. […] The mean dressing size was then subtracted from the mean zone of inhibition to determine the corrected zone of inhibition (CZOI). A CZOI test allows for any inherent variability in the shape and size of zones created by the silver dressings which may change in dimension following hydration.

Assay [2] deals with Seven antibiotic resistant microorganisms.
For assay [3], the system named is Serratia marcescens.
Assay [4] deals with C. kruzei. Particulars: poloxamer gel (biofilm state) vs without.
Assay [5] deals with Ps aeruginosa. Particulars: poloxamer gel (biofilm state) vs without.
Assay [6] has as its system Pseudomonas aeruginosa, Serratia marcescens, vancomycin resistant Enterococcus (VRE) and methicillin resistant Staphylococcus aureus (MRSA). Particulars: EDTA 0.1-40% weight by volume; planktonic and biofilm state.

With `O=C(O)CN(CCN(CC(=O)O)CC(=O)O)CC(=O)O` [EDTA, Ethylenediaminetetra-acetic acid], the “Effect of EDTA on the effects of ionic silver” value in assay [1] is “enhances”. Besides, the Zones of inhibition entry in assay [2] (0.1% EDTA, any organism studied) is listed as “no zones of inhibition were evident”; in assay [2] (40% EDTA, all organisms tested), “evident”; in assay [3] (5% EDTA), “no zones”; in assay [3] (10% EDTA), “no zones”. Further, in assay [2] (poloxamer gel (biofilm state) vs without), the “Zones of inhibition in the presence of poloxamer compared with planktonic” value is “slightly smaller”. The “Zones of inhibition with poloxamer compared with without” value in assay [4] and in assay [5] was “larger zones” in each case. Further, in assay [6], the Killing of microorganisms result is listed as “effective in killing”.
